# Data reported in patent US20170165231A1, “TREATING EWING'S SARCOMA AND EWS-FLI1 RELATED DISORDERS” (STAR BIOTECHNOLOGY, LLC, priority 2012, published 2017).
# Where two headings read alike, the source gives them in different places.
# Legend:
# [1] = set-up: species or system CF1 mice; conditions: in vivo; for HL_Lambda_z: CF1, mouse
# Description: FIGS. 1A and 1B depict data of pharmacokinetic studies in CF1 mice with respect to administration of the API in the formulation shown in the Figures and via the route of administration shown in the Figures. […] In FIG. 1A group/dose=Group IV_IV_40; Rsq=0.9297; Rsq_adjusted=0.9062; HL_Lambda_z=4.7397 (hr); (5 points used in calculation); Uniform Weighting. […] In FIG. 1B group/dose=Group V_PO_40; Rsq=0.693; Rsq_adjusted=0.6163; HL_Lambda_z=2.0556 (hr); (6 points used in calculation); Uniform Weighting.
# FIGS. 2A and 2B depict data of pharmacokinetic studies in CF1 mice with respect to administration of the API in the formulation shown in the Figures and via the route of administration shown in the Figures. […] In FIG. 2A dose/route=Group III_PO_150; Rsq=0.9685; Rsq_adjusted=0.9528; HL_Lambda_z=4.2505 (hr); (4 points used in calculation); Uniform Weighting. […] In FIG. 2B dose/route=Group VI_PO_400; Rsq=0.9971; Rsq_adjusted=0.9957; HL_Lambda_z=1.9461 (hr); (4 points used in calculation); Uniform Weighting.
# Pharmacokinetics and bioavailability data was obtained from animal studies for a 50% PEG 400 plus 10% EtOH plus PBS formulation (Groups 1, 2 & 3) and a 40% PEG 400 plus 5% EtOH plus 18% TPGS plus PBS formulation (Groups 4, 5 & 6) and are shown below in Table 2.
# The API was administered to CF1 mice. Blood was drawn from the mice at predetermined time intervals. Plasma was isolated from the blood and analyzed using LCMS to determine amounts of API (ng/mL). The data shown in FIG. 1A was obtained for IV administration of 40 mg/kg of API in a formulation containing 40% PEG400, 5% EtOH and 18% TPGS (d-alpha tocopheryl PEG1000 succinate). The data shown in FIG. 1B was obtained for PO administration of 40 mg/kg of API in a formulation containing 40% PEG400, 5% EtOH and 18% TPGS (d-alpha tocopheryl PEG1000 succinate). The data shown in FIG. 2A was obtained for PO administration of 150 mg/kg of API in a formulation containing 50% PEG400 and 10% EtOH. The data shown in FIG. 2B was obtained for PO administration of 400 mg/kg of API in a formulation containing 40% PEG400, 5% EtOH and 18% TPGS (d-alpha tocopheryl PEG1000 succinate). Time 0 in FIGS. 1A, 1B, 2A and 2B represent the time of administration of the API.
# TC71 Luc cells = assay: TC71Luc Ewing's sarcoma xenograft murine model; format: in vivo, mice; conditions: continuous and prolonged API administration
# Description: FIG. 3 (Smooth of Grouped-TC71 Luc Xenograft Animal Model) depicts data obtained from a TC71 Luc Ewing's sarcoma xenograft murine model for mice treated with the API in an EtOH (5%), PEG400 (40%), PBS formulation. The x-axis is time post-administration of the API in days with 0 being the first day of administration of API. The y-axis is tumor volume in mm^3.
# Using a TC71Luc Ewing's sarcoma xenograft murine model, mice were subcutaneously injected with 1 million TC71 Luc cells. At a predetermined tumor volume (time=0), mice were given the first administration of API in an EtOH (5%), PEG400 (40%), PBS formulation. FIG. 3 depicts data obtained from control and for administration once per week (1×), three times per week (3×) and five times per week (5×) in each case at a dosage of 1.2 mg per mouse.
# [2] = unformulated compound, background statement; cited from earlier work
structure (smiles),measurement,setting,value
"COc1ccc(C(=O)CC2(O)C(=O)Nc3c(Cl)ccc(Cl)c32)cc1 (stereo not shown) [compound of Formula I, 4,7-Dichloro-1,3-dihydro-3-hydroxy-3[2-(4-methoxyphenyl)-2-oxoethyl]-2H-indol-2-one]",HL_Lambda_z,"[1]; iv, 40 mg/kg",4.7397 h
same,HL_Lambda_z,"[1]; po, 40 mg/kg",2.0556 h
same,HL_Lambda_z,"[1]; po, 150 mg/kg",4.2505 h
same,HL_Lambda_z,"[1]; po, 400 mg/kg",1.9461 h
same,clearance rate from plasma,[1]; mouse,rapid
same,tumor abatement,TC71 Luc cells,increased tumor abatement
same,solubility in water,[2],highly insoluble
